The values that follow come from PubChem BioAssay AID1549 (Sanford-Burnham Center for Chemical Genomics, 2009).

Structures are written as SMILES. Calls of active or inactive are those of the source. How the calls were made is not given here. Where only a bound is given, the exact number is not on record here.

The assay addresses Influenza A virus M2 proton channel (A/TW/4845/1999 H1N1). The experiment in a line: NMR binding screen, influenza A virus M2 proton channel, Kd (AID 1549). To be noted: M2 protein.
The Kd is the equilibrium constant for the complex coming apart. `CCOC(=O)C1CCNCC1`: the Kd is > 4 mM (inactive).

On to `COc1cc([C@@H]2c3cc4c(cc3[C@H](OC(C)=O)[C@H]3COC(=O)[C@@H]23)OCO4)cc(OC)c1OC`, for which the Kd was > 4 mM (inactive).

`Cc1c(C(=O)NCc2ccccn2)oc2ccccc12`: the Kd is > 4 mM (inactive).

For the molecule `Nc1cc(F)nc(F)n1`, the Kd was > 4 mM (inactive).

Turning to `O=C(CS(=O)(=O)c1ccccc1)N1CCCCCC1`, the Kd was > 4 mM (inactive).

As to `CC1=C/C(=C\c2c(O)[nH]c(=O)[nH]c2=O)C(C)=N1`, the Kd is > 4 mM (inactive).

With `CC1=C(C(N)=O)C(c2ccco2)C(C(N)=O)=C(C)N1`, the Kd is > 4 mM (inactive).

`CC1CCC2(OC1)OC1CC3C4CC[C@H]5C[C@@H](O)CC[C@]5(C)C4CC(=O)[C@]3(C)C1C2C` (some centres undefined): the Kd is > 4 mM (inactive).

Regarding `O=C(CSc1ncccn1)Nc1nccs1`, the Kd was > 4 mM (inactive).

In the case of `NS(=O)(=O)c1ccc2c(c1)OCCO2`, the Kd is > 4 mM (inactive).

Take `Cc1cc(N)on1`: the Kd was > 4 mM (inactive).

Regarding `COC(=O)Cn1c2ccccc2c2nc(C)sc21`, the Kd is > 4 mM (inactive).

Regarding `CC(C)c1ccccc1NC(=O)c1cnccn1`, the Kd was > 4 mM (inactive).

Consider `Cc1cc(NC(=O)Cc2c(F)cccc2Cl)no1`, for which the Kd is > 4 mM (inactive).

Consider `CCN1CCN(CCCNc2ncnc3nc[nH]c23)CC1`, for which the Kd is > 4 mM (inactive).

Regarding `Cc1ccc2[nH]c3nc(=S)[nH]nc3c2c1`, the Kd was > 4 mM (inactive).

For `Nc1nc(N)nc(N2C(=O)c3ccccc3C2=O)n1`, the Kd was > 4 mM (inactive).

For `CS/C(N)=C\C(C)=O`, the Kd was > 4 mM (inactive).

For the molecule `COc1ccc(-c2oc3cc(O[C@H]4O[C@H](CO)[C@@H](O)[C@H](O)[C@H]4O)c(OC)c(O)c3c(=O)c2OC)cc1O`, the Kd was > 4 mM (inactive).

As to `CNC(=O)N1CCN(C(=O)NC)CC1`, the Kd was > 4 mM (inactive).

For the molecule `Cc1cc2nc3c(=O)[nH]c(=O)nc-3n(CC(O)C(O)C(O)CO)c2cc1C` (centres undefined), the Kd was > 4 mM (inactive).

As for `OC1CCC(C(F)(F)F)CC1` (centres undefined), the Kd was > 4 mM (inactive).

In the case of `NNc1ncnc2sccc12`, the Kd was > 4 mM (inactive).

Take `C[N+](C)(C)CC(=O)[O-]`: the Kd is > 4 mM (inactive).

With `Cc1nc(-c2cnccn2)sc1C(=O)O`, the Kd was > 4 mM (inactive).

Regarding `CC1=C2[C@H]3OC(=O)[C@@H](C)[C@@H]3CC[C@@]2(C)C=CC1=O`, the Kd was > 4 mM (inactive).

For the molecule `CCc1c(C(=O)Nc2ccncc2)csc1C`, the Kd is > 4 mM (inactive).

As for `O=c1c(Cl)c(NCCO)ncn1-c1ccccc1`, the Kd was > 4 mM (inactive).

`CCOC(=O)CSCC(=O)Nc1nccs1`: the Kd was > 4 mM (inactive).

For `NCCc1ccc(S(N)(=O)=O)cc1`, the Kd is > 4 mM (inactive).

Consider `CC(=O)Cc1nsc(NC(=O)c2ccc(C)cc2)n1`, for which the Kd is > 4 mM (inactive).

On to `CCCc1ncc(C(O)c2cccc3ccccc23)n1C` (centres undefined), for which the Kd was > 4 mM (inactive).

`O=C(O)C1CCN(S(=O)(=O)c2cccs2)CC1`: the Kd was > 4 mM (inactive).

Take `Cc1nc2ccc(C(=O)N3CCSCC3)cc2s1`: the Kd is > 4 mM (inactive).

In the case of `O=C(O)c1ccc2nccnc2c1`, the Kd is > 4 mM (inactive).

Regarding `C[C@@H]1CC[C@@]2(OC1)O[C@H]1CC3C4CC[C@H]5C[C@@H](O)CC[C@]5(C)C4CC[C@]3(C)[C@H]1[C@@H]2C` (some centres undefined), the Kd is > 4 mM (inactive).

Regarding `O=C1NC(=O)C(Cc2ccccc2)C(=O)N1`, the Kd was > 4 mM (inactive).

Regarding `CCNC(=O)CC1Nc2ccccc2NC1=O` (centres undefined), the Kd was > 4 mM (inactive).

Regarding `CCNC(CC(=O)Nc1cccc([N+](=O)[O-])c1)C(=O)O` (centres undefined), the Kd is > 4 mM (inactive).

Take `O=c1c(-c2ccco2)[n+]([O-])c2ccccc2n1O`: the Kd is > 4 mM (inactive).

Take `COc1cnn(Cc2ccccc2)c(=O)c1Cl`: the Kd was > 4 mM (inactive).

`C=CCn1c(=S)[nH]c2ccc(Br)cc2c1=O`: the Kd is > 4 mM (inactive).

`C[C@]12CCC3C(CC[C@H]4C[C@@H](O)CC[C@]34C)C1CCC2=O` (some centres undefined): the Kd was > 4 mM (inactive).

In the case of `Cc1nnc(SCC(=O)NCc2ccccc2)[nH]c1=O`, the Kd was > 4 mM (inactive).

With `O=C(O)C1CSC(c2ccco2)N1` (centres undefined), the Kd is > 4 mM (inactive).

With `O=C(O)c1csc(-c2cccnc2)n1`, the Kd is > 4 mM (inactive).

For `Cc1ccc(C(=O)N2CC(=O)NC(=O)C2)cc1`, the Kd is > 4 mM (inactive).

Regarding `CCOCC(=O)N1CCc2ccccc21`, the Kd is > 4 mM (inactive).

As for `Cc1nnc(SCc2ccon2)n1-c1ccccc1`, the Kd was > 4 mM (inactive).

Regarding `CNC(=O)C(=O)Nc1ccc(C)c(C)c1`, the Kd is > 4 mM (inactive).

In the case of `CS(=O)(=O)N/N=C/c1cccs1`, the Kd was > 4 mM (inactive).

Regarding `COc1ccc(C(C)=O)c(O)c1`, the Kd was > 4 mM (inactive).

On to `Cc1oc(-c2ccccc2)nc1CCO`, for which the Kd is > 4 mM (inactive).

On to `CN(C)C(=O)N1CCN(C(=O)c2ccco2)CC1`, for which the Kd was > 4 mM (inactive).

Consider `CCOC(=O)CC1NCCNC1=O` (centres undefined), for which the Kd is > 4 mM (inactive).

Regarding `CC(=O)Nn1c(=O)[nH]c2ccccc2c1=O`, the Kd is > 4 mM (inactive).

For the molecule `Cc1nnc(SCC(N)=O)c2ccccc12`, the Kd was > 4 mM (inactive).

For the molecule `CSc1n[nH]c(NCc2ccccc2)n1`, the Kd is > 4 mM (inactive).

Consider `O=C(Nc1ccc2c(c1)OCCO2)c1c(F)cccc1F`, for which the Kd was > 4 mM (inactive).

For the molecule `Cc1[nH]c2ccccc2c1CN(C)C`, the Kd was > 4 mM (inactive).

Take `CCOC(=O)c1cc(C)[nH]n1`: the Kd was > 4 mM (inactive).

For the molecule `Oc1ccccc1N1CCCC1`, the Kd is > 4 mM (inactive).

Turning to `CCOC(=O)CC1Sc2ccccc2NC1=S` (centres undefined), the Kd is > 4 mM (inactive).

For `C[C@]12CC(=O)C3C(CC[C@@H]4C[C@H](O)CC[C@]34C)C1CC[C@]2(O)C(=O)CO` (some centres undefined), the Kd is > 4 mM (inactive).

With `O=C(O)c1cc(O)c2c(c1)C(=O)c1cc(O)cc(O)c1C2=O`, the Kd was > 4 mM (inactive).

As for `O=c1[nH]c(NCCO)nnc1Cc1ccccc1`, the Kd was > 4 mM (inactive).

Regarding `O=C(Nc1cnccn1)c1ccncc1`, the Kd is > 4 mM (inactive).

`Cc1ccc2cc(N)ccc2n1`: the Kd was > 4 mM (inactive).

Turning to `COc1ccc(-c2cc(=O)c3c(O)cc(O[C@@H]4O[C@H](CO[C@H]5O[C@H](C)[C@@H](O)[C@H](O)[C@@H]5O)[C@@H](O)[C@H](O)[C@H]4O)cc3o2)cc1O`, the Kd is > 4 mM (inactive).

For `NC(=O)NC1C=CS(=O)(=O)C1` (centres undefined), the Kd was > 4 mM (inactive).

On to `CCN(CC)S(=O)(=O)c1cccc2nsnc12`, for which the Kd was > 4 mM (inactive).

Take `CN1CCN(C(=O)/C=C\C(=O)O)CC1`: the Kd was > 4 mM (inactive).

As to `CC1=CC2C(C(C)C)CCC(C)(O)C2CC1` (centres undefined), the Kd was > 4 mM (inactive).

For `COc1ccc(-c2coc3cc(OC(C)=O)cc(OC(C)=O)c3c2=O)cc1`, the Kd is > 4 mM (inactive).

As to `CC(=O)Oc1c(-c2ccccc2)oc2c(CC=C(C)C)c3c(c(OC(C)=O)c2c1=O)C=CC(C)(C)O3`, the Kd is > 4 mM (inactive).

Consider `O=c1cc(-c2ccccc2)oc2cc(O)c(O)c(O)c12`, for which the Kd was > 4 mM (inactive).

Take `C=CCCCCCCCCCCCc1ccco1`: the Kd was > 4 mM (inactive).

As to `Nc1cccc2c(=O)[nH][nH]c(=O)c12`, the Kd is > 4 mM (inactive).

Regarding `[O-][n+]1c2ccccc2[n+]([O-])c2cc(O)ccc21`, the Kd is > 4 mM (inactive).

In the case of `OCCNc1ccccn1`, the Kd is > 4 mM (inactive).

Regarding `c1ccc(SCc2nc(-c3cccnc3)no2)cc1`, the Kd is > 4 mM (inactive).

As to `CCOC(=O)c1[nH]c(C)cc1C`, the Kd is > 4 mM (inactive).

Turning to `O=C1O[C@H](C(O)CO)C(O)=C1O` (some centres undefined), the Kd was > 4 mM (inactive).

For the molecule `O=C(C1CCNCC1)N1CCCCCC1`, the Kd is > 4 mM (inactive).

As to `CC1CCN(C(=S)c2ccccc2O)CC1`, the Kd was > 4 mM (inactive).

As to `Cc1cc(=O)n2nc(-c3ccccc3)sc2n1`, the Kd is > 4 mM (inactive).

Regarding `Nc1nncn1C(=O)c1ccccc1Cl`, the Kd was > 4 mM (inactive).

As for `Cc1cc(C(=O)Nc2sc3c(c2C#N)CCC3)no1`, the Kd was > 4 mM (inactive).

`NCC1COc2ccccc2O1` (centres undefined): the Kd was > 4 mM (inactive).

For the molecule `COc1ccc2c(c1)O[C@H]1c3ccc(OC)cc3OC[C@@H]21`, the Kd is > 4 mM (inactive).

`NC(CCC(=O)Nc1ccc([N+](=O)[O-])cc1)C(=O)O` (centres undefined): the Kd was > 4 mM (inactive).

As to `NC(=O)NCCCC(N)C(=O)O` (centres undefined), the Kd was > 4 mM (inactive).

`CN1CCC(NC(=O)c2cccnc2)CC1`: the Kd was > 4 mM (inactive).

On to `O=C(/C=C/C=C/c1ccc2c(c1)OCO2)N1CCCCC1`, for which the Kd is > 4 mM (inactive).

In the case of `CC(=O)Nc1cccc(-c2n[nH]c(=S)n2C)c1`, the Kd is > 4 mM (inactive).

In the case of `O=C1NC2NC(=O)N(c3ccccc3)C2N1` (centres undefined), the Kd was > 4 mM (inactive).

Take `c1nnc2c3c4c(sc3ncn12)CCCC4`: the Kd was > 4 mM (inactive).

Regarding `CC(C)(OC(=O)c1ccccc1)[C@@H]1Cc2cc3ccc(=O)oc3cc2O1`, the Kd is > 4 mM (inactive).

With `Cc1cc(=O)n(C(N)=S)[nH]1`, the Kd is > 4 mM (inactive).

Turning to `C[n+]1cc2c3c(ccc2c2ccc4cc5c(cc4c21)OCO5)OCO3`, the Kd is > 4 mM (inactive).

For the molecule `OCc1sccc1-n1cccc1`, the Kd was > 4 mM (inactive).

For the molecule `COc1cc(OC)c2c(=O)c(-c3ccccc3)coc2c1`, the Kd was > 4 mM (inactive).

For the molecule `O=C(Nc1cccnc1)c1c(F)cccc1F`, the Kd is > 4 mM (inactive).

For `CC(=O)c1cccc(NS(=O)(=O)N(C)C)c1`, the Kd was > 4 mM (inactive).
